Experimental data taken from patent US11028127B2, “Peptides capable of reactivating p53 mutants” (Yeda Research and Development Co. Ltd., priority 2013, dated 2021).
Primed or numbered codes have the meaning given here. Where no end group is shown, it is not given here. The star is where a group is joined. FITC′ = fluorescein isothiocyanate label at the N-terminus; Myristoyl = CCCCCCCCCCCCCC(=O)*

Tested on: Mut-p53
Experiment: Total activity score over combined assays (Table 8)
Set-up: scale not given here
Settings: for Activity Score: Table 10 summary of activity of the peptides tested; for AS (Activity Score): total score of Table 7; for Conformation, activity score / PCR, activity score: Table 8; for Conformation, activity score: the 14 score columns c4-c17 stand under the heads Conformation, DNA binding, Viability, PCR; for PCR, activity score: head span not shown
Source text: Several alternative and complementary methods to screen lead peptide candidates for conformational and functional effects on Mut-p53 were employed. For increased penetration of peptide across cell membranes each peptide contains 3-6 Arginine residues either as part of its sequence or added either at its N-terminus or its C-terminus. […] In-vitro based assays for evaluation were first performed, such as ELISA for assessment of p53 conformation and sequence-specific DNA binding of p53.

Substance	Activity Score	AS (Activity Score)	Conformation, activity score	PCR, activity score
pCAP157 (SFILFIRRGRLGRKKRRQRRRP)	37	37	–	–
pCAP213 (RRIKMIRTSESFIQHIVS)	5	–	–	–
pCAP105 (SRIVLGW)	5	5	–	–
pCAP59 (FLIRRSG)	9	9	–	–
pCAP266 (HHRLSYFIVRRHSTHASR)	2	–	–	–
pCAP314 (RSTPHIHEFIRR)	3	–	–	–
pCAP37 (KLQVPIK)	6	6	–	–
pCAP28 (HTDSHPHHHHPH)	24	24	–	–
pCAP71 (WTLSNYLGGRKKRRQRRRR)	2	2	–	–
pCAP32 (TSPLQSLK)	4	4	–	–
pCAP73 (SCRCRLRGDRGDR)	0	0	–	–
pCAP278 (RRYDTVIDDIEYRR)	6	–	–	–
pCAP228 (DEDAAHSTGHPHNSQHRRRR)	3	–	–	–
pCAP140 (TDSHSHHRRRRRRRRRRR)	6	6	–	–
pCAP136 (SILTLRLRRLRRRRRRRR)	14	14	–	–
pCAP173 (RLRRL)	0	0	–	–
pCAP165 (SLLIG)	0	0	–	–
pCAP218 (RREVTELHHTHEDRR)	0	–	–	–
pCAP202 (DEDAKFRIRILMRR)	8	–	3	–
pCAP231 (HRTQSTLILFIRRGRET)	9	–	–	–
pCAP115 (HPHNHTVHNVVY)	3	3	–	–
pCAP273 (RDFHTIHPSISRR)	3	–	–	–
pCAP248 (EIYGESGKTDEHALDTEYRR)	0	–	–	–
pCAP309 (HPHVILPRIRIRIR)	0	–	–	–

Substance	Activity Score	AS (Activity Score)	Conformation, activity score	PCR, activity score
pCAP85 (KLTIHHH)	0	0	–	–
pCAP4 (EHDFEVRGDVVNGRNHQGPK)	2	2	–	–
pCAP201 (HPTHPIRLRDNLTR)	3	–	–	–
pCAP323 (Myristoyl-DLHTIHIPRDRR)	0	–	–	–
pCAP148 (WNHHHSTPHPRRRRRRRRRR)	43	43	–	–
pCAP274 (LRDPHPPERRIR)	0	–	–	–
pCAP301 (Myristoyl-IRGRIRIIRRIR)	12	–	–	–
pCAP41 (WHHRQQIPRPLE)	2	2	–	–
pCAP72 (SCRCRLRRRRRRRRRR)	5	5	–	–
pCAP280 (Myristoyl-RYRRLILEIWRR)	6	–	–	–
pCAP233 (SHYHTPQNPPSTRRR)	11	–	–	–
pCAP126 (RRLRICV)	0	0	–	–
pCAP234 (HRTGHYTRCRQRCRSRSHNRH)	2	–	–	–
pCAP223 (SPWTHERRCRQR)	0	–	–	–
pCAP10 (VAEFAQSIQSRIVEWKERLD)	8	8	–	–
pCAP237 (HTIHVHYPGNRQPNPPLILQR)	12	–	–	–
pCAP287 (RDFERTIVDI)	8	–	–	–
pCAP134 (IRILMFLIGCGRRRRRRRR)	40	40	–	–
pCAP14 (HHFSHHWKT)	9	9	–	–
pCAP208 (RRIRSGGKDHAWTPLHENH)	0	–	–	–
pCAP291 (DLQYDFPRIRR)	0	–	–	–
pCAP18 (SHQVHTHHNN)	6	6	–	–
pCAP260 (RRTFIRHRIDSTEVIYQDED)	0	–	4	6
pCAP300 (RIRRDPDSPLPHPE)	0	–	–	–

Substance	Activity Score	AS (Activity Score)	Conformation, activity score	PCR, activity score
pCAP44 (VPHIHEFT)	16	16	–	–
pCAP61 (KDLPFYSHLSRQ)	17	17	–	–
pCAP104 (LLRLGLI)	21	21	–	–
pCAP88 (SYQTMQP)	6	6	–	–
pCAP319 (SHDFYPHWMRERIR)	3	–	–	–
pCAP113 (HTTAHTH)	3	3	–	–
pCAP49 (TRILCIVMM)	8	8	–	–
pCAP92 (FPHLVSSLTT)	7	7	–	–
pCAP249 (Myristoyl-DERTGKTRRYIDTRDIRR)	6	–	–	–
pCAP232 (RSRSSHLRDHERTHT)	0	–	–	–
pCAP153 (YWSAPQPATRRRRRRRRRRR)	6	6	–	–
pCAP2 (VWVHDSCHANLQNYRNYLLP)	2	2	–	–
pCAP3 (FWTQSIKERKMLNEHDFEVR)	12	12	–	–
pCAP254 (NHFDYDTIELDTAGEYSRRR)	0	–	–	–
pCAP256 (RTLHGRRVILHEGGHSISDLK)	2	–	–	–
pCAP5 (LEVIYMI)	2	2	–	–
pCAP229 (Myristoyl-PRVLPSPHTIHPSQYP)	36	–	–	4
pCAP166 (KPPER)	0	0	–	–
pCAP161 (HNAH)	29	29	–	–
pCAP168 (CRIIR)	0	0	–	–
pCAP310 (RLRCLLLLIGRVGRR)	4	–	–	–
pCAP170 (IRILM)	27	27	–	–
pCAP33 (SILTLRLRRLRR)	16	16	–	–
pCAP226 (DDSDNRIIRYRR)	6	–	–	–

Substance	Activity Score	AS (Activity Score)	Conformation, activity score	PCR, activity score
pCAP317 (RRDIHTIHPFYQ)	43	–	5	3
pCAP257 (Myristoyl-HSSHHHPTVQHRR)	8	–	–	–
pCAP110 (LFILVFR)	2	2	–	–
pCAP176 (HPWTH)	0	0	–	–
pCAP128 (CILRLWW)	19	19	–	–
pCAP60 (SFILFIRRGRLG)	40	40	–	–
pCAP163 (LTLS)	4	4	–	–
pCAP316 (Myristoyl-DIHTIHLPDTHRR)	7	–	–	–
pCAP222 (RYEENNGVNPPVQVFESRTR)	4	–	–	–
pCAP120 (SIRTLGRFLIIRV)	3	3	–	–
pCAP251 (RLRRVILRSYHE)	3	–	–	–
pCAP241 (LIGLSTSPRPRIIR)	0	–	–	–
pCAP152 (YRRLLIGMRRRRRRRRRRRR)	11	11	–	–
pCAP238 (TSPHPSLPRHIYPRR)	6	–	–	–
pCAP135 (HTDSHPHHHHPHRRRRR)	10	10	–	–
pCAP175 (DSPR)	0	0	–	–
pCAP145 (HSSHHHPVHSWNRRRRRRR)	7	7	–	–
pCAP109 (GPIKHHLQHH)	4	4	–	–
pCAP302 (LRIEPIRIR)	6	–	–	–
pCAP160 ({FITC′}-SFILFIRRGRLGRRRRRRRRR)	24	24	–	–
pCAP255 (DPEPPRYLPPPPERR)	0	–	–	–
pCAP23 (IRILMFLIGCGR)	22	22	–	–
pCAP271 (SPHPPYSPHPPYSPHPPYP)	0	–	–	–
pCAP169 (SFILI)	0	0	–	–

Substance	Activity Score	AS (Activity Score)	Conformation, activity score	PCR, activity score
pCAP11 (EWKERLDKEFSLSVYQKMKF)	16	16	–	–
pCAP131 (LPNPPERHHRRRRRRRRRRR)	18	18	–	–
pCAP89 (SILTLSCRCRLRLWR)	8	8	–	–
pCAP178 (RRVI)	0	0	–	–
pCAP239 (REGFYGPWHEQRRR)	4	–	–	–
pCAP290 (RYKEPRITPRE)	6	–	–	–
pCAP144 (SFILFIRRGRLGRRRRRRRRR)	49	49	–	–
pCAP137 (GAMHLPWHMGTRRRRRR)	8	8	–	–
pCAP243 (RRCRSILPLLLLSR)	2	–	–	–
pCAP29 (KPDSPRV)	0	0	–	–
pCAP167 (FILIR)	5	5	–	–
pCAP286 (HDFHDYLERR)	4	–	–	–
pCAP50 (WSEYDIPTPQIPP)	0	0	–	–
pCAP205 (RCRNRKKEKTECLQKESEK)	5	–	–	–
pCAP265 (EEPDRQPSGKRGGRKRRSR)	3	–	–	–
pCAP123 (GLCRIIL)	3	3	–	–
pCAP117 (DHSKFVPLFVRQ)	3	3	–	–
pCAP39 (DSLHSTY)	2	2	–	–
pCAP207 (RRSRSNEDVEDKTEDE)	0	–	–	–
pCAP262 (ESKTGHKSEEQRLRRYR)	0	–	–	–
